Source: paper PMC5051066, “Pharmacokinetics of calycopterin and xanthmicrol, two polymethoxylated hydroxyflavones with anti-angiogenic activities from Dracocephalum kotschyi Bioss” (DARU Journal of Pharmaceutical Sciences, 2016)
Entries after “also recorded” stand apart in the source; their conditions may differ. Each block holds one compound with its values, some of them ahead of it.

Assays:
[1] = Solubility in water based solvent systems (vehicle selection); type: physicochemical
Protocol: A number of solvents which were able to dissolve xanthomicrol and calycopterin were investigated as vehicles for the delivery of these compounds into the blood stream. DMSO was chosen as it is relatively benign in terms of toxicological effects (a number of drug formulations or medical devices containing DMSO are marketed e.g., RIMSO-50 from Bioniche Pharma, USA and Dolicur from Schering, Germany). Also, the volume required as vehicle (200 μL) was small compared to total blood volume in rat (about 20 mL) and would be unlikely to have an appreciable effect on pharmacokinetics of flavonoids being studied.

[2] = Predicted plasma concentration-time profiles from the two compartment models; conditions: rat, single I.V. dose of 30 mg/kg, predicted from two compartment model
Protocol: Our aim in this work was to find doses of these flavonoids which could produce such plasma levels over extended periods. […] The models generated, were used to predict the plasma concentration-time profiles for different doses of calycopterin and xanthomicrol (Fig. 7). After a single I.V. dose of 30 mg/kg, xanthomicrol plasma concentration would be greater than 500 ng/mL for more than 6 h while calycopterin’s plasma concentration would dip below 500 ng/mL 30 min after administration.
Fig. 7 Predicted plasma calycopterin (●) and xanthomicrol (○) concentration-time profiles after a single IV bolus dose of 30 mg/kg or either compound in the rat. The values were calculated based upon the two compartment models developed in this work

[3] = Pharmacokinetic study after i.v. administration in rats (online SPE HPLC of plasma, two-compartment model); type: in vivo, male Wistar rats; conditions: for t1/2 (biological half-life) / K12 (rate constant of transfer from the peripheral compartment into the central compartment) / K21 (rate constant of transfer from the central compartment into the peripheral compartment) / half-life / C0 / clearance / k el / Vd: i.v. bolus, 20 mg/kg; for t1/2 (biological half-life) / half-life / C0 / clearance / k el / Vd: plasma; for K12 (rate constant of transfer from the peripheral compartment into the central compartment) / K21 (rate constant of transfer from the central compartment into the peripheral compartment) / C0 / clearance / k el / Vd: two-compartment model; for half-life / C0 / clearance / k el / Vd: male, Wistar, rat, iv; for half-life: read-out: t1/2 (biological half-life) (converted); for C0: read-out: C0 (initial plasma concentration); for clearance: read-out: Cla (clearance rate of the central compartment) (converted); for k el: read-out: Kel (rate constant of elimination from the central compartment) (converted); for Vd: read-out: Vc (volume of distribution of the central compartment)
Protocol: Confirmation of calycopterin, xanthomicrol and circimaritin identity was carried out using HPLC analysis of purified compound compared to the material obtained from previous work and also IR spectroscopy. A HPLC method with online solid phase extraction was developed for the analysis of xanthomicrol and calycopterin in biological fluids (Fig. 1) using circimaritin as internal standard (IS). 100 μL of plasma and 10 μL of 500 μg/mL IS were mixed in a 2 mL microcentrifuge tube. 40 μL of 10 mg/mL ZnSO4 was added to the tube and the content was mixed. After addition of 200 μL acetonitrile, the tube was placed in an orbital shaker for 10 min. The samples were subsequently centrifuged at 14000 g for 10 min the supernatant was subjected to online extraction/HPLC analysis as follows:
At the start of every run, the sample injection valve and the sample extraction valve were switched to load position (Fig. 1). 250 μL of sample was injected into the sample loop of the sample injection valve. The valve was switched to the inject position which diverted the flow from the online SPE (solid phase extraction) solvent delivery pump (500 μL/min) through the sample loop which in turned carried the sample onto the online SPE column (3×15mm, ODS-2, 5 μm). After 2 min, the sample extraction valve was switched to inject position. This allowed the mobile phase from the analysis solvent delivery pump (1 mL/min) to wash any material retained by the online SPE system, onto the analytical column (4.6×150mm, ODS-2, 5 μm, Tracer Excell, Technochroma, Spain) for separation and measurement. The mobile phase pumped by online SPE solvent delivery pump consisted of acetonitrile:water (35:65) and the mobile phase pumped by the analysis solvent delivery pump was composed of acetonitrile:methanol:water:triethylamine (37:24:38.5:0.5). 16 min after the start of analysis, the mobile phase pumped by the analysis solvent delivery pump was switched to methanol:tetrahydrofurane:dichloromethane (80:10:10) for 3 min. This allowed for highly non-polar compounds retained by the SPE and analytical column to be flushed. Detection was at 263 nm.
All procedures involving animals were carried out after the approval and under the supervision of the Ethics Committee for Animal Expreiments of Iran University for Medical Sciences. In order to be able to withdraw blood samples at predefined time points during pharmacokinetic studies, femoral vein of male Wistar rats, in the weight range of 280 to 300 g, were catheterized, under anaesthesia, using the method described by Jespersen et al.. After the placement of the catheter, the animals were allowed to recover for 24 h, during which time, the rats were checked for signs of bleeding and the catheters were checked for patency.
Xanthomicrol or calycopterin was dissolved in 200 μL of dimethylsulfoxide (DMSO) and injected into the dorsal tail vein of rats. Just before drug injection (time zero) and at 1, 5, 10, 20, 60, 120 and 240 min after drug injection, 300 μL of blood were withdrawn via the femoral vein which had been catheterized previously. In order to prevent phlebotomy induced hypovolemia, 200 μL normal saline was injected via the femoral catheter after each blood sample withdrawal. Blood samples were centrifuged at 4 °C for 10 min at 4000 g. Plasma was collected and stored frozen at -80 °C until needed.
Pharmacokinetic parameters obtained from constructing the residual concentration verses time curve for these two-compartmental models are presented in Table 3. Rate constants for transfer between the central and peripheral compartments (K21and K12) and also the elimination process (Kel) were also calculated.

HUVEC cell = test system: HUVEC cell; set-up: method as in PMID 24895220; conditions: at 500 ng/mL; cited from earlier work
Balb/C mice [4] = test: Toxicological study in mice: serum creatinin, ALT, AST (kidney and liver functions); type: in vivo; conditions: for Serum ALT / Serum AST / Serum Creatinin: mice, I.P.
Protocol: (§1) Toxicity studies were carried out using Balb/C mice in the 25-30 g weight range. Drug administration was via the I.P. methoud. Animals were assigned to five groups of three: one-Control groups which received no treatment, two-Vehicle control which received 60 μL of DMSO (dimethyl sulfoxide) for 6 days, 3- Test group one which received 30 mg/kg body weight xanthomicrol in 60 μL of DMSO per day, 4- Test group two which received 40 mg/kg body weight xanthomicrol on 60 μL of DMSO per day and 5- Test group three which received 50 mg/kg body weight xanthomicrol on 60 μL of DMSO per day. The animals were weighed and examined for changes in skin tone, signs of fur loss and changes in bowl function. On the seventh day, the animals were anaesthetized under an atmosphere of chloroform. Once fully anaesthetized, blood samples were collected from the heart and the animals were killed by cervical dislocation. Serum samples were analyzed for hepatic enzymes AST and ALT [16] and also for creatinin levels. Kidneys, liver, lung, intestines and stomach were removed from animals and placed in 10 % formalin solution for subsequent paraffin embedding, sectioning, staining and histological studies. Tissue sections were examined for fibrotic, inflammatory and vascular changes by a qualified pathologist.

Balb/C mice [5] = test: Toxicological study in mice: body weight, mortality, behaviour, overt toxicity; type: in vivo; conditions: for toxic effects overall (behavioral, histological, biochemical): repeated administrations at administered doses (30, 40 and 50 mg/kg/day for six days)
Protocol: as §1

Balb/C mice [6] = test: Toxicological study in mice: tissue histology; type: in vivo
Protocol: as §1

[7] = mice, 30, 40 or 50 mg/kg body weight
[8] = mice, 30, 40 and 50 mg/kg/day for six days
[9] = Test group 1 (30 mg/kg per day, I.P.), Lung/Liver/Heart/ Kidney, single animal
[10] = Test group 1 (30 mg/kg per day, I.P.), Small intestine/ Large intestine/ Gastric wall, single animals
[11] = Test group 2 (40 mg/kg per day, I.P.), Lung/Liver/Heart/ Kidney, single animals, listed as xanthimcrol, 40 mg/kg/day
[12] = Test group 2 (40 mg/kg per day, I.P.), Small intestine/ Large intestine/ Gastric wall, single animal
[13] = Test group 3 (50 mg/kg per day, I.P.), Lung/Liver/Heart/ Kidney, single animals
[14] = Test group 3 (50 mg/kg per day, I.P.), Lung/Liver/Heart/ Kidney, single animals, listed as xanthimcrol, 50 mg/kg/day
[15] = Test group 3 (50 mg/kg per day, I.P.), Small intestine/ Large intestine/ Gastric wall, single animal

time after administration at which plasma concentration would dip below 500 ng/mL [2]: 30 min
volume of distribution of calycopterin relative to xanthomicrol ([3]; i.v.): about 8 times
t1/2 (biological half-life) [3]: 3.8 h
K12 (rate constant of transfer from the peripheral compartment into the central compartment) [3]: 1.39 h⁻¹
K21 (rate constant of transfer from the central compartment into the peripheral compartment) [3]: 0.52 h⁻¹
half-life [3]: ~240 min
C0 [3]: 312 ng/mL
clearance [3]: 280 mL/min
k el [3]: 7.22e-05 s⁻¹
Vd [3]: 63.9 L
Compound: COc1c(OC)c(O)c2c(=O)c(OC)c(-c3ccc(O)cc3)oc2c1OC [Calycopterin, calycopterin]
solubility in water based solvent systems [1]: do not dissolve in water based solvent systems
effect on capillary-like tube formation (HUVEC cell): inhibited capillary-like tube formation

Compound: COc1c(OC)c(O)c2c(=O)cc(-c3ccc(O)cc3)oc2c1OC [Xanthomicrol, xanthomicrol]
difference in alanine transaminase (ALT) activity between control, vehicle and test groups (Balb/C mice [4]; [7]): no significant differences
difference in aspartic acid transaminase (AST) activity between control, vehicle and test groups (Balb/C mice [4]; [7]): no significant differences; also recorded: not significantly different
difference in serum creatinin content between control, vehicle and test groups (Balb/C mice [4]; [7]): no significant differences
Serum ALT (Balb/C mice [4]; 30 mg/kg per day for 6 days): 38 ± 8.8 IU/L
Serum AST (Balb/C mice [4]; 30 mg/kg per day for 6 days): 138 ± 37 IU/L
Serum ALT (Balb/C mice [4]; 40 mg/kg per day for 6 days): 22 ± 19 IU/L
Serum AST (Balb/C mice [4]; 40 mg/kg per day for 6 days): 130 ± 49 IU/L
Serum Creatinin (Balb/C mice [4]; 40 mg/kg per day for 6 days): 0.35 ± 0.036 mg/dL
Serum ALT (Balb/C mice [4]; 50 mg/kg per day for 6 days): 30 ± 3.0 IU/L
Serum AST (Balb/C mice [4]; 50 mg/kg per day for 6 days): 316 ± 163 IU/L
Serum Creatinin (Balb/C mice [4]; 50 mg/kg per day for 6 days): 0.39 ± 0.02 mg/dL
solubility in water based solvent systems [1]: do not dissolve in water based solvent systems
time for which plasma concentration would be greater than 500 ng/mL [2]: more than 6 h
change in animal weights compared to control group (Balb/C mice [5]; [8]): no change in animal weights
motor or behavioral abnormalities (Balb/C mice [5]; [8]): no animal showed any signs of motor or behavioral abnormalities
toxic effects overall (behavioral, histological, biochemical) (Balb/C mice [5]; mice): did not appear to have toxic effects
toxic effects overall (behavioral, histological, biochemical) (Balb/C mice [5]; mice, listed as xanthomicrol): failed to show any behavioral, histological and biochemical adverse effects
weight of animals (Balb/C mice [5]; mice, xanthomicrol groups, control group 27.1 g ± 1.2): 27.7 ± 1.7 g
acute toxic effects (Balb/C mice [5]; mouse, in vivo): appears not to have acute toxic effects
t1/2 (biological half-life) [3]: 4.2 h
K12 (rate constant of transfer from the peripheral compartment into the central compartment) [3]: 1.88 h⁻¹
K21 (rate constant of transfer from the central compartment into the peripheral compartment) [3]: 0.46 h⁻¹
half-life [3]: ~240 min
C0 [3]: 2340 ng/mL
clearance [3]: 30 mL/min
k el [3]: 5.83e-05 s⁻¹
Vd [3]: 8.5 L
Fibrosin (Balb/C mice [6]; [9]): Absent
Inflammation structural change (Balb/C mice [6]; [9]): Absent
Notes (histology) (Balb/C mice [6]; [9]): Normal
Vascular change (Balb/C mice [6]; [9]): None
Fibrosin (Balb/C mice [6]; [10]): Absent
Inflammation structural change (Balb/C mice [6]; [10]): Absent
Notes (histology) (Balb/C mice [6]; [10]): Normal
Vascular change (Balb/C mice [6]; [10]): None
Fibrosin (Balb/C mice [6]; Test group 2 (40 mg/kg per day, I.P.), Lung/Liver/Heart/ Kidney, single animals): Absent
Inflammation structural change (Balb/C mice [6]; [11]): Lymphocyte infilteration in lung sample, Subcapsular inflammation in liver sample; also recorded: Focal inflammation in lung tissue
Notes (histology) (Balb/C mice [6]; [11]): Normal; also recorded: Increased type II pneumocytes
Vascular change (Balb/C mice [6]; [11]): Hypermic; also recorded: Increased vascularization in lung sample
Fibrosin (Balb/C mice [6]; [12]): Absent
Inflammation structural change (Balb/C mice [6]; [12]): Absent
Notes (histology) (Balb/C mice [6]; [12]): Normal
Vascular change (Balb/C mice [6]; [12]): None
Fibrosin (Balb/C mice [6]; [13]): Absent
Vascular change (Balb/C mice [6]; [13]): None
Inflammation structural change (Balb/C mice [6]; [14]): Focal inflammation in lung sample; also recorded: Absent
Notes (histology) (Balb/C mice [6]; [14]): Increased type II pneumocytes; also recorded: Normal
Fibrosin (Balb/C mice [6]; [15]): Absent
Inflammation structural change (Balb/C mice [6]; [15]): Absent
Vascular change (Balb/C mice [6]; [15]): None
Histological examination of tissue samples compared to the control group (Balb/C mice [6]; [8]): absence of significant pathological change; also recorded: unable to find xenobiotic induced damage to vital organs
effect on capillary-like tube formation (HUVEC cell): inhibited capillary-like tube formation
